Reference: patent publication US11339171B2, “MDM2 inhibitors” (Gan & Lee Pharmaceuticals, priority 2017, dated 2022)
“And” between values parts separate entries of the source, which are not always exact repeats. Equal entries are not always repeated. Where two headings read alike, the source gives them in different places.

Legend:
[1] = tested on: human osteosarcoma cell line SJSA-1; test: Inhibition of proliferation of human osteosarcoma cell line SJSA-1 (DAPI staining, In Cell Analyzer); conditions: Homo sapiens, SJSA-1, 72 h, read-out: IC50 (nM), inhibitory activity on proliferation of human osteosarcoma cell line SJSA-1, SJSA-1, incubated 72 h
[2] = Pharmacokinetics in ICR mice after intravenous and intragastric administration; format: in vivo; conditions: for MRT last: read-out: MRT(0-t); for MRT inf: read-out: MRT(0-∞); for Vd: read-out: Vz
In short: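 Plasma concentrations by LC-MS/MS (range 1 to 2000 ng/ml) following single intravenous (2 mg/kg) or oral gavage (5 mg/kg) dosing of fasted male ICR mice, three per group. Vehicle 5% DMSO + 40% PEG400 + 55% (10% HP-β-CD in saline); standard PK parameters including bioavailability calculated.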

MDM2 = target: T1, MDM2 (Homo sapiens, UniProt Q00987); test: Inhibition test of MDM2-P53 (GST-MDM2, Biotin-P53, Anti-GST-Tb, SA-XL665); format: binding
T1 construct: made in house
In short: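 Compounds, serially diluted 5-fold (twelve concentrations), were shaken for 90 min at 25° C with a mix of GST-MDM2 (4 nM final), Biotin-P53, anti-GST-Tb and SA-XL665. Buffer: 1×PBS, 0.1% BSA, 5 mM DTT, 1 mM AEBSF; signal read on a microplate reader.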

[3] = ICR mice, IV 2 mg/kg, individual animal, 2 mg/kg
[4] = ICR mice, PO 5 mg/kg, individual animal, 5 mg/kg
[5] = male, ICR, mouse, plasma, iv, 2 mg/kg, ICR mice, IV 2 mg/kg, individual animal
[6] = male, ICR, mouse, plasma, iv, 2 mg/kg, ICR mice, IV 2 mg/kg, mean of 3 animals
[7] = male, ICR, mouse, plasma, po, 5 mg/kg, ICR mice, PO 5 mg/kg, individual animal
[8] = male, ICR, mouse, plasma, po, 5 mg/kg, ICR mice, PO 5 mg/kg, mean of 3 animals

T1 sequence (Q00987 whole entry): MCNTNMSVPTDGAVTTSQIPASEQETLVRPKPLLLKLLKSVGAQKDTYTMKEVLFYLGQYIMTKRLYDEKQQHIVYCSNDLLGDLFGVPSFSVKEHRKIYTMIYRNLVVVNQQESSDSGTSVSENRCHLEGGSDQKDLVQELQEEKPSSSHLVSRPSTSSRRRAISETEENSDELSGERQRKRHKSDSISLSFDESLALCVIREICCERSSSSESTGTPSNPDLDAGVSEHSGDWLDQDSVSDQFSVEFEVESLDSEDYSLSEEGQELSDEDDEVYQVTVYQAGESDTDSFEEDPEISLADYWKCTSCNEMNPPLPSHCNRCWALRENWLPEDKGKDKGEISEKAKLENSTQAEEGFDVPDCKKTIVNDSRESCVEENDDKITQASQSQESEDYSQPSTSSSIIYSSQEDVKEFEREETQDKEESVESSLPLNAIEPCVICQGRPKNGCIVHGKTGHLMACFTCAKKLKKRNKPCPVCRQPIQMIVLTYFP

COc1ncc(-c2nc3c(n2C(C)C)[C@@]2(C(=O)Nc4cc(Cl)ccc42)N(c2cc(Cl)ccc2F)C3=O)c(OC)n1 [Example S-44, (S)-6-chloro-5′-(5-chloro-2-fluorophenyl)-2′-(2,4-dimethoxypyrimidin-5-yl)-3′-isopropyl-3′H-spiro[dihydroindole-3,4′-pyrrolo[3,4-d]imidazole]-2,6′(5′H)-dione]
IC50 [1]: 11.9 nM | AUC(0-t) [2, 3]: 2703.63 ng·h/mL and 2987.84 ng·h/mL | AUC(0-∞) [2, 3]: 3052.47 ng·h/mL and 3364.67 ng·h/mL | CL [2, 3]: 10.92 mL/min/kg and 9.91 mL/min/kg | Cmax [2, 3]: 826.58 ng/mL and 951.21 ng/mL | MRT(0-t) [2, 3]: 1.82 h | MRT(0-∞) [2, 3]: 2.61 h and 2.56 h | Vz [2, 3]: 1.82 L/kg and 1.64 L/kg | t1/2 [2, 3]: 1.92 h and 1.91 h | AUC(0-t) [2, 4]: 5161.46 ng·h/mL and 6287.89 ng·h/mL | AUC(0-∞) [2, 4]: 5447.83 ng·h/mL and 6556.64 ng·h/mL | Cmax [2, 4]: 1097.85 ng/mL and 1204.30 ng/mL | MRT(0-t) [2, 4]: 2.81 h and 3.08 h | MRT(0-∞) [2, 4]: 3.22 h and 3.38 h | Tmax [2, 4]: 2.00 h | t1/2 [2, 4]: 1.77 h and 1.65 h | AUC(0-inf) [2, 5]: 2770 ng·h/mL | clearance [2, 5]: 12.1 mL/min/kg | AUC(0-t) ([2]; male, ICR, mouse, plasma, iv, 2 mg/kg, ICR mice, IV 2 mg/kg, individual animal, read-out: AUC(0-t)): 2510 ng·h/mL | Cmax ([2]; male, ICR, mouse, plasma, iv, 2 mg/kg, ICR mice, IV 2 mg/kg, individual animal, read-out: Cmax): 872 ng/mL | MRT last [2, 5]: 1.71 h | MRT inf [2, 5]: 2.35 h | Tmax ([2]; male, ICR, mouse, plasma, iv, 2 mg/kg, ICR mice, IV 2 mg/kg, individual animal, read-out: Tmax): 0.08 h | Vd [2, 5]: 1.86 L/kg | half-life ([2]; male, ICR, mouse, plasma, iv, 2 mg/kg, ICR mice, IV 2 mg/kg, individual animal, read-out: t1/2 (converted)): 1.79 h | AUC(0-inf) [2, 6]: 3060 ng·h/mL | clearance [2, 6]: 11 mL/min/kg | AUC(0-t) ([2]; male, ICR, mouse, plasma, iv, 2 mg/kg, ICR mice, IV 2 mg/kg, mean of 3 animals, read-out: AUC(0-t)): 2730 ng·h/mL | Cmax ([2]; male, ICR, mouse, plasma, iv, 2 mg/kg, ICR mice, IV 2 mg/kg, mean of 3 animals, read-out: Cmax): 883 ng/mL | MRT last [2, 6]: 1.77 h | MRT inf [2, 6]: 2.51 h | Tmax ([2]; male, ICR, mouse, plasma, iv, 2 mg/kg, ICR mice, IV 2 mg/kg, mean of 3 animals, read-out: Tmax): 0.083 h | Vd [2, 6]: 1.77 L/kg | half-life ([2]; male, ICR, mouse, plasma, iv, 2 mg/kg, ICR mice, IV 2 mg/kg, mean of 3 animals, read-out: t1/2 (converted)): 1.87 h | AUC(0-inf) [2, 7]: 8960 ng·h/mL | AUC(0-t) ([2]; male, ICR, mouse, plasma, po, 5 mg/kg, ICR mice, PO 5 mg/kg, individual animal, read-out: AUC(0-t)): 7900 ng·h/mL | Cmax ([2]; male, ICR, mouse, plasma, po, 5 mg/kg, ICR mice, PO 5 mg/kg, individual animal, read-out: Cmax): 1360 ng/mL | MRT last [2, 7]: 3.17 h | MRT inf [2, 7]: 4.17 h | Tmax ([2]; male, ICR, mouse, plasma, po, 5 mg/kg, ICR mice, PO 5 mg/kg, individual animal, read-out: Tmax): 1 h | half-life ([2]; male, ICR, mouse, plasma, po, 5 mg/kg, ICR mice, PO 5 mg/kg, individual animal, read-out: t1/2 (converted)): 2.56 h | AUC(0-inf) [2, 8]: 6990 ng·h/mL | AUC(0-t) ([2]; male, ICR, mouse, plasma, po, 5 mg/kg, ICR mice, PO 5 mg/kg, mean of 3 animals, read-out: AUC(0-t)): 6450 ng·h/mL | Cmax ([2]; male, ICR, mouse, plasma, po, 5 mg/kg, ICR mice, PO 5 mg/kg, mean of 3 animals, read-out: Cmax): 1220 ng/mL | MRT last [2, 8]: 3.02 h | MRT inf [2, 8]: 3.59 h | Tmax ([2]; male, ICR, mouse, plasma, po, 5 mg/kg, ICR mice, PO 5 mg/kg, mean of 3 animals, read-out: Tmax): 1.33 h | half-life ([2]; male, ICR, mouse, plasma, po, 5 mg/kg, ICR mice, PO 5 mg/kg, mean of 3 animals, read-out: t1/2 (converted)): 2 h | AUC(0-t) ([2]; male, ICR, mouse, plasma, po, 5 mg/kg, oral intragastric administration 5 mg/kg, read-out: AUC0-t): 6450 ng·h/mL | half-life ([2]; male, ICR, mouse, plasma, po, 5 mg/kg, oral intragastric administration 5 mg/kg, read-out: half-life (converted)): 2 h | bioavailability ([2]; male, ICR, mouse, plasma, oral intragastric administration 5 mg/kg, read-out: bioavailability): 94.4% | bioavailability ([2]; male, mouse, plasma, ICR mice, PO 5 mg/kg vs IV 2 mg/kg, from mean values, read-out: F* (bioavailability)): 94.4% | IC50 (MDM2): 1.18 nM
